Numbers after ± are expanded uncertainties. Values belong to the compound of their own block, whether it stands above or below them.
How the values were obtained:
[1] = wn = mass fraction of the nth substance listed; details: 298.15 K, 101 kPa, Liquid, Vibrating tube method
[2] = refractive index (Na D-line) (dimensionless); details: 298.15 K; 101.33 kPa; Liquid; Standard Abbe refractometry
[3] = 298.15 K; 101.33 kPa; Liquid; Vibrating tube method

mass density ([1]; w2 = 0): 773.88 ± 0.13 kg/m3
mass density ([1]; w2 = 0.0503): 766.95 ± 0.14 kg/m3
mass density ([1]; w2 = 0.0991): 760.53 ± 0.14 kg/m3
mass density ([1]; w2 = 0.2021): 748.16 ± 0.14 kg/m3
mass density ([1]; w2 = 0.3118): 735.69 ± 0.15 kg/m3
mass density ([1]; w2 = 0.3926): 726.61 ± 0.15 kg/m3
mass density ([1]; w2 = 0.5039): 717.21 ± 0.16 kg/m3
mass density ([1]; w2 = 0.666): 703.79 ± 0.16 kg/m3
mass density ([1]; w2 = 0.7062): 700.61 ± 0.17 kg/m3
mass density ([1]; w2 = 0.8061): 692.71 ± 0.17 kg/m3
mass density ([1]; w2 = 0.9061): 685.62 ± 0.18 kg/m3
mass density ([1]; w2 = 0.9539): 682.6 ± 0.18 kg/m3
Compound: C1CCCCC1 [cyclohexane] + CCCCCCC

Compound: CCCC[N+]1(C)CCCC1.O=S(=O)([N-]S(=O)(=O)C(F)(F)F)C(F)(F)F
refractive index [2]: 1.42302 ± 0.00042
mass density [3]: 1394.66 ± 0.58 kg/m3

Compound: CCCC[N+]1(C)CCCC1.O=S(=O)([O-])C(F)(F)F [1-butyl-1-methylpyrrolidinium trifluoromethanesulfonate]
refractive index [2]: 1.43287 ± 0.00042
mass density [3]: 1252.71 ± 0.45 kg/m3

mass density ([1]; w1 = 1): 679.57 ± 0.18 kg/m3
Compound: CCCCCCC [heptane] + C1CCCCC1

Source: the NIST ThermoML archive (doi:10.1016/j.jct.2011.11.027)
